Ten compounds from ChEMBL document CHEMBL1130448, “CETP inhibitory activity of ceramides, isolated from the gorgonian Acabaria Undulata” (Bioorg Med Chem Lett, 1997) can be followed below.

What is called IC50 is the concentration at which inhibition is half-maximal. A high value points to weaker potency.

In this experiment the target is T1, Cholesteryl ester transfer protein (Homo sapiens, UniProt P11597).
T1 sequence (P11597 whole entry): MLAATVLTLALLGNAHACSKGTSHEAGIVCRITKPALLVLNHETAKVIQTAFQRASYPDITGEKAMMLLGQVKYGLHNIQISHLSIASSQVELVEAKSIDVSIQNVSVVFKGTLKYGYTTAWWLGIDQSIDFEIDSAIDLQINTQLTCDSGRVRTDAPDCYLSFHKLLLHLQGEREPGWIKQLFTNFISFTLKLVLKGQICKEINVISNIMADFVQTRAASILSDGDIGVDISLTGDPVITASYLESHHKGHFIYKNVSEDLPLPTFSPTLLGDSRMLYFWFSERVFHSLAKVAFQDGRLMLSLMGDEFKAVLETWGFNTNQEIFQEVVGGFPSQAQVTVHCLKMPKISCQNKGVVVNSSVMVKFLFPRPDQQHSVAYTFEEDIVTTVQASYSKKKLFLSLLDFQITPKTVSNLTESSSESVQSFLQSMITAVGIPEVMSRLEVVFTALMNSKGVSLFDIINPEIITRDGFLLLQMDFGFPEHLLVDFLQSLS
The experiment can be described thus: Compound was measured for its inhibitory activity against cholesteryl ester transfer protein (CETP).

The compound `CCCCCCCCC/C=C/CC/C=C/[C@@H](O)[C@H](CO)NC(=O)CCCCCCCCCCCCCCC` came in with an IC50 of 46.8 µM.

`CCCCCCCCCCCCC/C=C/[C@@H](O)[C@@H](N)CO` [SPHINGOSINE] had an IC50 of 11.5 µM. This IC50 is about 4.1-fold lower than that of the compound before.

Compound `CCCCCCCCCCCCCCC[C@@H](O)[C@@H](N)CO` (racemic) [DIHYDROSPINGOSINE] came in with an IC50 of 12.9 µM. This IC50 and that of the compound before are within 1.5-fold of each other.

`CCCCCCCCCCCCC/C=C/C(O)C(CO)N(C)C` (stereo not given) yielded an IC50 of 6.3 µM. This IC50 lies about 2-fold lower than the previous one.

`CCCCCCCCCCCCCCCC(=O)N[C@@H](CO)[C@H](O)/C=C/CC/C=C/CCCCCCCC(C)C` registered an IC50 of 86.3 µM.

As to `CCCCCCC/C=C/C=C/CC/C=C/[C@@H](O)[C@H](CO)NC(=O)CCCCCCCCCCCCCCC`, the IC50 is 57.3 µM.

As for `CCCCCCCCCCCCC/C=C/[C@@H](O)[C@@H](N)COP(=O)([O-])OCC[N+](C)(C)C` [SPHINGOSYLPHOSPHORYLCHLOLINE], the IC50 was 157 µM.

The compound `CCCCCCCCCCCCC/C=C/C(O)C(N)CO[C@H]1O[C@H](CO)[C@H](O)[C@H](O)[C@H]1O` (stereo not given in full) came in with an IC50 of 19.7 µM.

Compound `CCCCCCCCCCCCC/C=C/[C@@H](O)[C@H](CO)NC(=O)CCCCCCCCCCCCCCC` yielded an IC50 of 65.6 µM.

Take `CC(C)CNC(=O)/C=C/[C@@H]1C[C@H]1[C@@H]1C[C@H]1[C@@H]1C[C@H]1[C@@H]1C[C@H]1[C@@H]1C[C@H]1/C=C/[C@@H]1C[C@H]1C`: 25 µM corresponded to half-maximal inhibition (IC50).
